From ChEMBL document CHEMBL4308841, “Synthesis, in vitro antiproliferative activity, and kinase inhibitory effects of pyrazole-containing diarylureas and diarylamides” (Eur J Med Chem, 2018)

How the values were obtained:
[1] = tested on: K562; test: Growth inhibition of human K562 cells assessed as cell growth at 1 uM incubated for 48 hrs by sulforhodamine B assay relative to control; assay type: functional; conditions: K562, 48 h, read-out: Activity
[2] = tested on: BT-549; test: Growth inhibition of human BT549 cells assessed as cell growth at 0.1 uM incubated for 48 hrs by sulforhodamine B assay relative to control; assay type: functional; conditions: BT-549, 48 h, read-out: Activity
[3] = tested on: NCI-H322M; test: Growth inhibition of human NCI-H322M cells incubated for 48 hrs by sulforhodamine B assay; assay type: functional, cell-based
[4] = tested on: SNB-19; test: Growth inhibition of human SNB19 cells incubated for 48 hrs by sulforhodamine B assay; assay type: functional, cell-based; conditions: SNB-19, 48 h
[5] = tested on: NCI-H522; test: Growth inhibition of human NCI-H522 cells assessed as cell growth at 0.1 uM incubated for 48 hrs by sulforhodamine B assay relative to control; assay type: functional; conditions: NCI-H522, 48 h, read-out: Activity
[6] = tested on: Malme-3M; test: Growth inhibition of human MALME-3M cells assessed as cell growth at 0.01 uM incubated for 48 hrs by sulforhodamine B assay relative to control; assay type: functional; conditions: read-out: Activity
[7] = tested on: SK-MEL-2; test: Growth inhibition of human SK-MEL-2 cells assessed as cell growth at 0.01 uM incubated for 48 hrs by sulforhodamine B assay relative to control; assay type: functional; conditions: SK-MEL-2, 48 h, read-out: Activity
[8] = tested on: SN12C; test: Growth inhibition of human SN12C cells assessed as cell growth at 1 uM incubated for 48 hrs by sulforhodamine B assay relative to control; assay type: functional; conditions: read-out: Activity
[9] = tested on: MOLT-4; test: Growth inhibition of human MOLT4 cells assessed as cell growth at 100 uM incubated for 48 hrs by sulforhodamine B assay relative to control; assay type: functional; conditions: MOLT-4, 48 h, read-out: Activity
[10] = tested on: SK-OV-3; test: Growth inhibition of human SKOV3 cells assessed as cell growth at 1 uM incubated for 48 hrs by sulforhodamine B assay relative to control; assay type: functional; conditions: SK-OV-3, 48 h, read-out: Activity
[11] = tested on: Hs-578T; test: Growth inhibition of human Hs578T cells assessed as cell growth at 0.01 uM incubated for 48 hrs by sulforhodamine B assay relative to control; assay type: functional; conditions: read-out: Activity
[12] = tested on: NCI-H23; test: Growth inhibition of human NCI-H23 cells incubated for 48 hrs by sulforhodamine B assay; assay type: functional, cell-based; conditions: NCI-H23, 48 h
[13] = tested on: KM12; test: Growth inhibition of human KM12 cells assessed as cell growth at 1 uM incubated for 48 hrs by sulforhodamine B assay relative to control; assay type: functional; conditions: KM12, 48 h, read-out: Activity
[14] = tested on: MDA-MB-435; test: Growth inhibition of human MDA-MB-435 cells assessed as cell growth at 0.1 uM incubated for 48 hrs by sulforhodamine B assay relative to control; assay type: functional; conditions: MDA-MB-435, 48 h, read-out: Activity
[15] = tested on: HL-60(TB); test: Growth inhibition of human HL-60(TB) cells assessed as cell growth at 1 uM incubated for 48 hrs by sulforhodamine B assay relative to control; assay type: functional; conditions: HL-60, 48 h, read-out: Activity
[16] = tested on: NCI/ADR-RES; test: Growth inhibition of human NCI/ADR-RES cells incubated for 48 hrs by sulforhodamine B assay; assay type: functional, cell-based
[17] = tested on: RPMI-8226; test: Growth inhibition of human RPMI8226 cells assessed as cell growth at 100 uM incubated for 48 hrs by sulforhodamine B assay relative to control; assay type: functional; conditions: RPMI-8226, 48 h, read-out: Activity
[18] = tested on: SK-MEL-28; test: Growth inhibition of human SK-MEL-28 cells assessed as cell growth at 0.01 uM incubated for 48 hrs by sulforhodamine B assay relative to control; assay type: functional; conditions: SK-MEL-28, 48 h, read-out: Activity
[19] = tested on: HL-60(TB); test: Growth inhibition of human HL-60(TB) cells assessed as cell growth at 100 uM incubated for 48 hrs by sulforhodamine B assay relative to control; assay type: functional; conditions: HL-60, 48 h, read-out: Activity
[20] = tested on: MDA-MB-231; test: Growth inhibition of human MDA-MB-231 cells assessed as cell growth at 1 uM incubated for 48 hrs by sulforhodamine B assay relative to control; assay type: functional; conditions: MDA-MB-231, 48 h, read-out: Activity
[21] = tested on: Malme-3M; test: Growth inhibition of human MALME-3M cells assessed as cell growth at 100 uM incubated for 48 hrs by sulforhodamine B assay relative to control; assay type: functional; conditions: read-out: Activity
[22] = tested on: SF-539; test: Growth inhibition of human SF539 cells assessed as cell growth at 0.1 uM incubated for 48 hrs by sulforhodamine B assay relative to control; assay type: functional; conditions: SF-539, 48 h, read-out: Activity
[23] = tested on: RPMI-8226; test: Growth inhibition of human RPMI8226 cells incubated for 48 hrs by sulforhodamine B assay; assay type: functional, cell-based; conditions: RPMI-8226, 48 h
[24] = tested on: U-251; test: Growth inhibition of human U251 cells assessed as cell growth at 0.1 uM incubated for 48 hrs by sulforhodamine B assay relative to control; assay type: functional; conditions: U-251, 48 h, read-out: Activity
[25] = tested on: T47D; test: Growth inhibition of human T47D cells assessed as cell growth at 1 uM incubated for 48 hrs by sulforhodamine B assay relative to control; assay type: functional; conditions: read-out: Activity
[26] = tested on: PC-3; test: Growth inhibition of human PC3 cells assessed as cell growth at 0.01 uM incubated for 48 hrs by sulforhodamine B assay relative to control; assay type: functional; conditions: PC-3, 48 h, read-out: Activity
[27] = tested on: M14; test: Growth inhibition of human M14 cells incubated for 48 hrs by sulforhodamine B assay; assay type: functional, cell-based; conditions: M14, 48 h
[28] = tested on: UACC-62; test: Growth inhibition of human UACC62 cells assessed as cell growth at 1 uM incubated for 48 hrs by sulforhodamine B assay relative to control; assay type: functional; conditions: UACC-62, 48 h, read-out: Activity
[29] = read-out: pLC50 (the source's name) (converted)
[30] = read-out: LC50 (the source's name)

COc1cc(Cl)cc(-c2nn(-c3cccc(NC(=O)Nc4cc(C(F)(F)F)cc(C(F)(F)F)c4)c3)cc2-c2ccncc2)c1
growth at 1 µM [1]: 18% | growth at 0.1 µM [2]: 89% | IC50 [3]: 930 nM | GI50 ([3]; read-out: GI50): 933 nM | TGI ([3]; read-out: TGI): 10.9 µM | GI50 ([3]; read-out: pGI50 (converted)): 933 nM | CC50 [3, 29]: 46.8 µM | TGI ([3]; read-out: pTGI (converted)): 11 µM | IC50 [4]: 420 nM | GI50 ([4]; read-out: GI50): 420 nM | CC50 [4, 30]: > 100 µM | TGI ([4]; read-out: TGI): 11.3 µM | GI50 ([4]; read-out: pGI50 (converted)): 417 nM | CC50 [4, 29]: > 100 µM | TGI ([4]; read-out: pTGI (converted)): 11.2 µM | growth at 0.1 µM [5]: 80% | growth at 0.01 µM [6]: 92% | growth at 0.01 µM [7]: 103% | growth at 1 µM [8]: 17% | growth at 100 µM [9]: -34% | growth at 1 µM [10]: 43% | growth at 0.01 µM [11]: 97% | IC50 [12]: 330 nM | GI50 ([12]; read-out: GI50): 328 nM | LC50 ([12]; read-out: LC50): 0.05 µM | TGI ([12]; read-out: TGI): 1600 nM | GI50 ([12]; read-out: pGI50 (converted)): 331 nM | LC50 ([12]; read-out: pLC50 (converted)): 50.1 µM | TGI ([12]; read-out: pTGI (converted)): 1580 nM | growth at 1 µM [13]: 31% | growth at 0.1 µM [14]: 98% | growth at 1 µM [15]: 14% | IC50 [16]: 820 nM | GI50 ([16]; read-out: GI50): 815 nM | CC50 [16, 30]: > 100 µM | TGI ([16]; read-out: TGI): 9.98 µM | GI50 ([16]; read-out: pGI50 (converted)): 813 nM | CC50 [16, 29]: > 100 µM | TGI ([16]; read-out: pTGI (converted)): 10 µM | growth at 100 µM [17]: -8% | growth at 0.01 µM [18]: 103% | growth at 100 µM [19]: -8% | growth at 1 µM [20]: 29% | growth at 100 µM [21]: -39% | growth at 0.1 µM [22]: 102% | IC50 [23]: 240 nM | GI50 ([23]; read-out: GI50): 238 nM | CC50 [23, 30]: > 100 µM | TGI ([23]; read-out: TGI): 760 nM | GI50 ([23]; read-out: pGI50 (converted)): 234 nM | CC50 [23, 29]: > 100 µM | TGI ([23]; read-out: pTGI (converted)): 759 nM | growth at 0.1 µM [24]: 91% | growth at 1 µM [25]: 15% | growth at 0.01 µM [26]: 101% | IC50 [27]: 440 nM | GI50 ([27]; read-out: GI50): 442 nM | CC50 [27, 30]: 0.0939 µM | TGI ([27]; read-out: TGI): 2160 nM | GI50 ([27]; read-out: pGI50 (converted)): 447 nM | CC50 [27, 29]: 9.33 µM | TGI ([27]; read-out: pTGI (converted)): 2140 nM | growth at 1 µM [28]: 18%
